The values that follow come from ChEMBL document CHEMBL1201862, “PubChem BioAssay data set” (2004).

Experiment [1] has as its target Glycogen synthase kinase-3 alpha (Homo sapiens, UniProt P49840). The experiment is described as follows: human GSK3 alpha kinase inhibition, dose response, selectivity assay for GSK3beta inhibitor project, biochemical, microfluidics, dry powder samples, set 2 (AID 623978). The class given is functional.
A short description of experiment [2]: cells.
Experiment [3] addresses Glycogen synthase kinase-3 beta (Homo sapiens, UniProt P49841). The experiment is described as follows: GSK3beta kinase inhibitors, dose response, biochemical, microfluidics, dry powder samples, set 2 (AID 623989). The class given is functional.
In experiment [4] the test system is CHO-K1. The experiment is described as follows: Counterscreen for antagonists of the orexin 1 receptor (OX1R; HCRTR1): Homogeneous time resolved fluorescence (HTRF)-based cell-based dose response assay to identify antagonists of the parental CHO-K1 cell line. [Related pubchem assays (depositor defined):AID434989, AID435008, AID463079, AID485270, AID492963, AID492964, AID492965, AID493232, AID504699, AID504701]. The class given is functional. Particulars: Cricetulus griseus. (In general: The purpose of a counterscreen is to sort out artefacts and off-target activity.);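 further: potency for inhibition of ATP-stimulated IP1 production as antagonists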

In experiment [5] the target is T1, RNA-binding protein pos-1 (Caenorhabditis elegans, UniProt G5EF15).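 Further: purified POS-1 fused to maltose binding protein made in E. coli; potency of compounds blocking POS-1 binding to fluorescent RNA.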
T1 sequence (G5EF15 whole entry): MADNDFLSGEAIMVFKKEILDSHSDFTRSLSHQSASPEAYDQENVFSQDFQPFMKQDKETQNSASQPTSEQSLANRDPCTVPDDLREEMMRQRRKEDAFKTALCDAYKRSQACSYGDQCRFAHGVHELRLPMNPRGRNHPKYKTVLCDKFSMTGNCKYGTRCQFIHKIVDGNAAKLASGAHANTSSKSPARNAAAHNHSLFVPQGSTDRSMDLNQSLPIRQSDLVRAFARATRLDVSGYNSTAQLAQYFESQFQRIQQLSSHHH
The experiment is described as follows: inhibitors of POS-1/mex-3 RNA binding, dose response, biochemical, fluorescence polarization (AID 1964). (Fluorescence polarisation rises when a labelled molecule tumbles more slowly, as on binding a larger partner.)

For experiment [6], the target named is T2, Orexin/Hypocretin receptor type 1 (Homo sapiens, UniProt O43613). The experiment is described as follows: Homogeneous Time Resolved Fluorescence (HTRF)-based cell-based high throughput dose response assay for antagonists of the orexin 1 receptor (OX1R; HCRTR1). [Related pubchem assays (depositor defined):AID434989, AID435008, AID463079, AID485270, AID492963, AID492964, AID492965, AID493232, AID504717, AID504718]. The format is functional. (TR-FRET usually uses a lanthanide donor and a delayed reading to cut background.)

The target in experiment [7] is T3, Orexin receptor type 2 (Homo sapiens, UniProt O43614). The experiment can be described thus: Counterscreen assay for antagonists of the orexin 1 receptor (OX1R; HCRTR1): Fluorescence-based cell-based dose response assay for antagonists of the orexin 2 receptor (OX2R; HCRTR2), run by assay provider. The format is functional.
Experiment [8] in a line: Counterscreen for antagonists of the orexin 1 receptor (OX1R; HCRTR1): Fluorescence-based cell-based high throughput dose response assay to identify antagonists of the parental CHO cell line. [Related pubchem assays (depositor defined):AID434989, AID435008, AID463079, AID485270, AID492963, AID492964, AID492965, AID493232, AID504699, AID504701]. The class given is functional.

For experiment [9], the target named is T2, Orexin/Hypocretin receptor type 1. The experiment can be described thus: Fluorescence-based cell-based high throughput dose response assay for antagonists of the orexin 1 receptor (OX1R; HCRTR1). [Related pubchem assays (depositor defined):AID434989, AID435008, AID463079, AID485270, AID492963, AID492964, AID492965, AID493232, AID504717, AID504718]. The class given is functional.

The target in experiment [10] is T4, Zinc finger protein mex-5 (Caenorhabditis elegans, UniProt Q9XUB2).
T4 sequence (Q9XUB2 whole entry): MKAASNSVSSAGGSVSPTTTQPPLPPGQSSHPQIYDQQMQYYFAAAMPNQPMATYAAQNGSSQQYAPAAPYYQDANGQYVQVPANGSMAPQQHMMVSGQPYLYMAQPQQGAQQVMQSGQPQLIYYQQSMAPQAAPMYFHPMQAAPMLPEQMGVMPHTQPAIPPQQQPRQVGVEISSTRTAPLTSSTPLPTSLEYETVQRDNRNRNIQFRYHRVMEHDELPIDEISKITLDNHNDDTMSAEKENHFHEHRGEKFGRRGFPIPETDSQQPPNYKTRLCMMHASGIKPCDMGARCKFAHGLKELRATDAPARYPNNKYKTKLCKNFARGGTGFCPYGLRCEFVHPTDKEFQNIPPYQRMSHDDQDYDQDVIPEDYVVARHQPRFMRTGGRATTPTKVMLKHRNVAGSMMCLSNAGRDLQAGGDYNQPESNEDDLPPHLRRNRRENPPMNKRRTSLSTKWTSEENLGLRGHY
The experiment is described as follows: MEX-5/TCR-2 RNA interaction inhibitors, dose response, biochemical, C. elegans, fluorescence polarization (AID 1960).

Experiment [11] concerns the target T3, Orexin receptor type 2. The experiment can be described thus: Counterscreen assay for antagonists of the orexin 1 receptor (OX1R; HCRTR1): Homogeneous Time Resolved Fluorescence (HTRF)-based cell-based dose response assay for antagonists of the orexin 2 receptor (OX2R; HCRTR2), run by assay provider. The format is functional.
Experiment [12] concerns the target T5, DNA dC->dU-editing enzyme APOBEC-3A (Homo sapiens, UniProt P31941). The experiment can be described thus: SAR analysis of small molecule inhibitors of APOBEC3A DNA Deaminase via a fluorescence-based single-stranded DNA deaminase assay. The format is functional. Particulars: read-out: IC50_Mean.
Experiment [13] has as its target T6, DNA dC->dU-editing enzyme APOBEC-3G (Homo sapiens, UniProt Q9HC16). The experiment is described as follows: SAR analysis of small molecule inhibitors of APOBEC3G DNA Deaminase via a fluorescence-based single-stranded DNA deaminase assay - Set 2. Particulars: read-out: IC50_Mean. The class given is functional.
In experiment [14] the target is T5, DNA dC->dU-editing enzyme APOBEC-3A. The experiment is described as follows: SAR analysis of small molecule inhibitors of APOBEC3A DNA Deaminase via a fluorescence-based single-stranded DNA deaminase assay - Set 2. The format is functional. Particulars: read-out: IC50_Mean.
Experiment [15] concerns the target T6, DNA dC->dU-editing enzyme APOBEC-3G. The experiment is described as follows: APOBEC3G deaminase inhibitors, SAR follow-up, biochemical, fluorescence, single-stranded DNA substrate (AID 602136). The class given is functional. Particulars: read-out: IC50_Mean.
Experiment [16] concerns the target T7, Neuropeptides B/W receptor type 1 (Homo sapiens, UniProt P48145).
T7 sequence (P48145 whole entry): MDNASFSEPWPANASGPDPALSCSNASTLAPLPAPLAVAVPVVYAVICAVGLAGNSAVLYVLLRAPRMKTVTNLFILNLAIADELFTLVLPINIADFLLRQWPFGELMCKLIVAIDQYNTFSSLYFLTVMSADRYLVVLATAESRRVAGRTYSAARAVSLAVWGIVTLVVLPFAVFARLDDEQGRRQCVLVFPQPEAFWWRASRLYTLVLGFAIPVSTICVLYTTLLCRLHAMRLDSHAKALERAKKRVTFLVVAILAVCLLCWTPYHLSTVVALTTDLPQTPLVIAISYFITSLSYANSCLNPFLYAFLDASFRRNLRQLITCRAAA
The experiment is described as follows: GPR7 antagonist potency, late-stage follow-up, cell-based, fluorescence, dose response, set 6 (AID 588583). The class given is functional.

Experiment [17] addresses T8, Melanin-concentrating hormone receptor 1 (Homo sapiens, UniProt Q99705). The experiment can be described thus: Late-stage fluorescence-based counterscreen for antagonists of the G-protein coupled receptor 7 (GPR7): cell-based dose response assay to identify antagonists of the melanin-concentrating hormone receptor 1 (MCHR1) Set 6. The format is functional.
The target of experiment [18] is T7, Neuropeptides B/W receptor type 1. The experiment is described as follows: GPR7 antagonist potency, late-stage follow-up, cell-based, fluorescence, dose response, set 5 (AID 588566). The class given is functional.
Experiment [19] deals with T8, Melanin-concentrating hormone receptor 1. The experiment can be described thus: Late-stage fluorescence-based counterscreen for antagonists of the G-protein coupled receptor 7 (GPR7): cell-based dose response assay to identify antagonists of the melanin-concentrating hormone receptor 1 (MCHR1) Set 5. The format is functional.
The target in experiment [20] is Sphingosine 1-phosphate receptor 2 (Homo sapiens, UniProt O95136). The experiment is described as follows: Late-stage fluorescence-based dose-response cell-based counterscreen assay to identify agonists of the Sphingosine 1-Phosphate Receptor 3 (S1P3): Sphingosine 1-Phosphate Receptor 2 (S1P2) agonist assay. The class given is functional.
Experiment [21] concerns the target T9, Sphingosine 1-phosphate receptor 4 (Homo sapiens, UniProt O95977).
T9 sequence (O95977 whole entry): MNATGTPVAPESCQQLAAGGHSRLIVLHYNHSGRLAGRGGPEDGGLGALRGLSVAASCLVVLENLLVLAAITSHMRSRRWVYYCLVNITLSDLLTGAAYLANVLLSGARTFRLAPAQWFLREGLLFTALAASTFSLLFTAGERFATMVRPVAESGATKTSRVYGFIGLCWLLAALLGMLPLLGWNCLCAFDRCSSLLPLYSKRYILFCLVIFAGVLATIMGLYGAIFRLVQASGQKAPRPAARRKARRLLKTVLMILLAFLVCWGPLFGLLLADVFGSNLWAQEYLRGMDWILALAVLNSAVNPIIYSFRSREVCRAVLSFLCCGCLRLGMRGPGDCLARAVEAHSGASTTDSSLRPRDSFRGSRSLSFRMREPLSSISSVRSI
The experiment can be described thus: Late-stage fluorescence-based dose-response cell-based counterscreen assay to identify agonists of the Sphingosine 1-Phosphate Receptor 3 (S1P3): Sphingosine 1-Phosphate Receptor 4 (S1P4) agonist assay. The format is functional.

The target of experiment [22] is T10, Apoptotic protease-activating factor 1 (Homo sapiens, UniProt O14727).
T10 sequence (O14727 whole entry): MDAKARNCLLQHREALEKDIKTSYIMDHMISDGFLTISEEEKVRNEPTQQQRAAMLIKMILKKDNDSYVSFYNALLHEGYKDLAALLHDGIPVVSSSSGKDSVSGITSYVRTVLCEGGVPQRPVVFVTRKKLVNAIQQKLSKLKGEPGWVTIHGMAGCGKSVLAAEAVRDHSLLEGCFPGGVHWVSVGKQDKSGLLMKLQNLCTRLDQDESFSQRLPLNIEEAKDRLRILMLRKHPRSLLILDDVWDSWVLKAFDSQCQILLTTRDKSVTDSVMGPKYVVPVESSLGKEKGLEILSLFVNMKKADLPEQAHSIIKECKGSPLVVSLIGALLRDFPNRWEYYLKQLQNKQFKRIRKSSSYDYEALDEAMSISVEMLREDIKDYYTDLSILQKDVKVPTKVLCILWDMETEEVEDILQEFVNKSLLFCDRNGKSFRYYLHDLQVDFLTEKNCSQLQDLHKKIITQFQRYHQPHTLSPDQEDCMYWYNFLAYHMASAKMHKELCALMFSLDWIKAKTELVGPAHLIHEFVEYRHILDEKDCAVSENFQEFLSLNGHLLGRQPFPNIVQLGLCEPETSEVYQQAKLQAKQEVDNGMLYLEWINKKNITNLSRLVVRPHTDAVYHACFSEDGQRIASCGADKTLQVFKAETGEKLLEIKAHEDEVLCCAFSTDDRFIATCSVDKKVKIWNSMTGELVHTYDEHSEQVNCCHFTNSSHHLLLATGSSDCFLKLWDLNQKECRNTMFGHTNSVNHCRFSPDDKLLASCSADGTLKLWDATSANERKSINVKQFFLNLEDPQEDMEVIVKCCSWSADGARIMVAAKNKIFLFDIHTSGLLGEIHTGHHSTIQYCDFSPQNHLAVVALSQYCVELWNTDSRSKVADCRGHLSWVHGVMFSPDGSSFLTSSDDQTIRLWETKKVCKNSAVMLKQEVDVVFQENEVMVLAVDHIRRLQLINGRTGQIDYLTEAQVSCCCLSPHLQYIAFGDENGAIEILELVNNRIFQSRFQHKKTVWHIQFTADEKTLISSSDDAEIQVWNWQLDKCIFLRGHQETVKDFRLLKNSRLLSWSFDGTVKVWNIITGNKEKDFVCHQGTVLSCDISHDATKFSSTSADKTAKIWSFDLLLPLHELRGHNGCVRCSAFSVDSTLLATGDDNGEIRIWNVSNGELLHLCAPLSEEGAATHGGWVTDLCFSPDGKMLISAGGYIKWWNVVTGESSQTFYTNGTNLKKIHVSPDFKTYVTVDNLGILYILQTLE
The experiment is described as follows: SAR analysis of small molecule inhibitors of Apaf-1 in a Fluorescent assay. The format is functional. Particulars: read-out: IC50_Mean.

Activity calls are given as the source filed them.

T5 sequence (P31941 whole entry): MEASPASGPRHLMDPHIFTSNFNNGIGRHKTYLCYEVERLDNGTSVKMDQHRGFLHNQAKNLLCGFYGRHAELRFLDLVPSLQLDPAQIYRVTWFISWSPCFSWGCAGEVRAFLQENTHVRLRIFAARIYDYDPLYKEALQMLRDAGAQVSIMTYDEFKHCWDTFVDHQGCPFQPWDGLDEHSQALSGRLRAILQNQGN
T8 sequence (Q99705 whole entry): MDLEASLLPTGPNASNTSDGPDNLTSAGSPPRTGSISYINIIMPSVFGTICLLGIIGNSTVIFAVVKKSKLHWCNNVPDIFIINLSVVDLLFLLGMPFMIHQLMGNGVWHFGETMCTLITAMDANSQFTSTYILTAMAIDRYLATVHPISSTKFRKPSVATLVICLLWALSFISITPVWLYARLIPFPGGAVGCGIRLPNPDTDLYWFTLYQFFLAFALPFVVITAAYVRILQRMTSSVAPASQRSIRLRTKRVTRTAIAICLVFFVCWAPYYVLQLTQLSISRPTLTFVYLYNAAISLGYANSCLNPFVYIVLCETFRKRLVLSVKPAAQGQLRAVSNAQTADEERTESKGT
T2 sequence (O43613 whole entry): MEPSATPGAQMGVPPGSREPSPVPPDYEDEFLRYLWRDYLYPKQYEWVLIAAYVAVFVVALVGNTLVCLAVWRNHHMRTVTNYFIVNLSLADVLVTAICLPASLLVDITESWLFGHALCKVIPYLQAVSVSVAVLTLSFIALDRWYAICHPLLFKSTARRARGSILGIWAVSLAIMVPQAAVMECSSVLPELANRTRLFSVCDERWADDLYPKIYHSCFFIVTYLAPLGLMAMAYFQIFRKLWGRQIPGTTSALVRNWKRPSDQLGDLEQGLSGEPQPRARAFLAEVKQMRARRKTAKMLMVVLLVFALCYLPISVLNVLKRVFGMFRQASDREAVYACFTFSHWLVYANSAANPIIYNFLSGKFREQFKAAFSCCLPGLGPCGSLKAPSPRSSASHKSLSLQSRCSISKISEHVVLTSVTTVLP
T6 sequence (Q9HC16 whole entry): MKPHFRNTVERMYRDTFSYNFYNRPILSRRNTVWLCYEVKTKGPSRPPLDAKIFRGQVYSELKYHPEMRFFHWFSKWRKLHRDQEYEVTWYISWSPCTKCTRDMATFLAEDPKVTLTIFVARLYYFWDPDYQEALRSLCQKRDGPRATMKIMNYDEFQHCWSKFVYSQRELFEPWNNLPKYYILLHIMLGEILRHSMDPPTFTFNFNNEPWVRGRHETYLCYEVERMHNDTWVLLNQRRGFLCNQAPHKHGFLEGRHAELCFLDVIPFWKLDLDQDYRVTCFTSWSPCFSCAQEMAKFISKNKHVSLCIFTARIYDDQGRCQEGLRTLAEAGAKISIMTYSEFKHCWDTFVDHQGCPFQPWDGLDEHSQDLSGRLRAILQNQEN
T3 sequence (O43614 whole entry): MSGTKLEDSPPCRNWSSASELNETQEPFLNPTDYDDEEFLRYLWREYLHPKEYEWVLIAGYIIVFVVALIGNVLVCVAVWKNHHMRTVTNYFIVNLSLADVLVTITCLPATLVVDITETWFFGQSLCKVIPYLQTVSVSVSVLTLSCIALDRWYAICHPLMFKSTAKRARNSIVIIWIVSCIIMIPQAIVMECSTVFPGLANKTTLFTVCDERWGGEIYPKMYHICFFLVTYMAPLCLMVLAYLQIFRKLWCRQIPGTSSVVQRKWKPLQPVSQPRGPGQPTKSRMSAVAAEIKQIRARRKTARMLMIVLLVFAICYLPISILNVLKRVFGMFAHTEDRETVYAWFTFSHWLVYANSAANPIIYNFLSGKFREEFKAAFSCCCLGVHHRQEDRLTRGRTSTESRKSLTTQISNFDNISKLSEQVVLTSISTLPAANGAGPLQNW
Chain of Glycogen synthase kinase-3 beta (P49841 whole entry): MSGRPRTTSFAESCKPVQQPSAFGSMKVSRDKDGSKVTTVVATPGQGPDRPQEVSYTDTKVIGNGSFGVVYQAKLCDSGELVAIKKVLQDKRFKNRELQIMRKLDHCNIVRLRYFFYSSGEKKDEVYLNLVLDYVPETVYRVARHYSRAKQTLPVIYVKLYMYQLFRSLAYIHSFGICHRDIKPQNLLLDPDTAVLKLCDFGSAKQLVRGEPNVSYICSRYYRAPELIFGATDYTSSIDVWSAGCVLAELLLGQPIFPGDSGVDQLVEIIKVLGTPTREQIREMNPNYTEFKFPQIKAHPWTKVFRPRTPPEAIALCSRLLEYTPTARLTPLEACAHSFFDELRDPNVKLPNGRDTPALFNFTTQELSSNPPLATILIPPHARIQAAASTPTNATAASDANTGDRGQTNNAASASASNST
Chain of Glycogen synthase kinase-3 alpha (P49840 whole entry): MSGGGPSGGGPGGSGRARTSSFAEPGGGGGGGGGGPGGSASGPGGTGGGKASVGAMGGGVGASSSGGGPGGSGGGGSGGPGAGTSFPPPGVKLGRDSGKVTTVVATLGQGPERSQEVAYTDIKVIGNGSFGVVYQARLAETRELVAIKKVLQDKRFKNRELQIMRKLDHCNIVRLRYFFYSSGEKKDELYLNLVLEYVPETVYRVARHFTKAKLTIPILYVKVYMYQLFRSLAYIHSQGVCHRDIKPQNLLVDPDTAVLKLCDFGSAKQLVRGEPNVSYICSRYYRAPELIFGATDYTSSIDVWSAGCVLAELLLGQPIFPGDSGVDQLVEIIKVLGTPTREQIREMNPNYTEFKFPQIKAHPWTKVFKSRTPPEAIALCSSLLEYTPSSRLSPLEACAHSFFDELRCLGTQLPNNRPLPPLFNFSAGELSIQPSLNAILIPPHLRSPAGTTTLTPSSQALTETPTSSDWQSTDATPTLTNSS
Chain of Sphingosine 1-phosphate receptor 2 (O95136 whole entry): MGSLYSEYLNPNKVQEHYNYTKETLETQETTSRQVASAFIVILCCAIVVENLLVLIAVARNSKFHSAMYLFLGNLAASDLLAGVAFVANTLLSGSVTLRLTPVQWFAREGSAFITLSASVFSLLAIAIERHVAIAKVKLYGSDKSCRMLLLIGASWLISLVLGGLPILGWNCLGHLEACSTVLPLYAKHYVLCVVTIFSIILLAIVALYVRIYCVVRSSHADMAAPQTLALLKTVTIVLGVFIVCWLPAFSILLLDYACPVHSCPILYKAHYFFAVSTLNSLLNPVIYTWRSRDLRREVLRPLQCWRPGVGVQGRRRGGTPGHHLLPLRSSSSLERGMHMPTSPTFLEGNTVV

Regarding `Fc1cccc(Nc2nc(-c3ccncc3)nc3ccccc23)c1`, the AC50 (commonly the concentration at which the activity in the assay is half-maximal) in experiment [1] is 29.7 µM (active); in experiment [3], 894 nM (active). Besides, in experiment [2], the IC50 was 44.3 µM (active).

With `Nc1c(C(=O)c2ccc(Br)s2)oc2ccccc12`, the IC50 in experiment [4] is > 66.2 µM (inactive); in experiment [6], 6.69 µM (active); in [7], 30.7 µM (inactive); in [8] it was > 49.8 µM (inactive); in experiment [9], 15.7 µM (inactive); in experiment [11], > 50 µM (inactive). For the same compound, the figures for the EC50 in experiment [5] and in experiment [10] were 71.8 µM (active) and 106 µM (active), respectively.

Regarding `CC1(C)Oc2ccc3ccc(=O)oc3c2C(C=NCCO)=C1O`, the IC50 in experiment [12] is 28.8 µM (inactive); in [13], 2.34 µM (active); in experiment [14] it was 50.4 µM (inactive); in [15], 12.3 µM (inactive).

In the case of `N#CC(c1cccc(F)c1F)c1c(Cl)cnn(Cc2cccc3ccccc23)c1=O` (configuration not stated), the IC50 in [16] and in [17] was 542 nM (active) in each case.

As to `COc1ccc(Oc2c(Cl)cnn(Cc3ccccc3OCc3ccccc3)c2=O)cc1`, the values for the IC50 in [18] and in experiment [19] were 1.21 µM (active) and 16.5 µM (inactive), respectively.

Regarding `CC1CCCCC1N(C(=O)c1cc(C2CC2)on1)C1CCOCC1` (configuration not stated), the EC50 in [20] and in experiment [21] was > 50 µM (inactive) in each case.

In the case of `Cc1ccc2c(c1)C(=O)c1nc3ccccc3c(=O)n1-2`, in [22], the IC50 was > 100 µM (inactive).
